Results: patent publication US7893199B2, “Peptides having neutrophil-stimulating activity” (National University Corporation Gunma University, priority 2006, dated 2011)
Like-named read-outs stand apart in the source and are kept apart here. Where a SMILES comes first, the peptide text is derived from it. Where no end group is shown, it is not given here.

Tests used:
[1] = test system: HL-60 cells differentiated into the neutrophil-like cells; assay: β-hexosaminidase-secreting activity of neutrophil-like differentiated HL-60 cells; type: cell-based, human
From the text: (1) Culture of Cell and Differentiation Into Neutrophil-like Cell
In this time, the cells were subcultured at a cell density of 1.0×10^5 cells/ml to 1.5×10^6 cells/ml, the number of cells was counted using a microscope, and the state of the cells was also confirmed.
The HL-60 cells were differentiated into neutrophil-like cells by setting the cell density in the flask to about 1.0×10^6 cells/ml, adding dibutylyl-cAMP (db-cAMP) as a differentiation-inducing agent so as to have a final concentration of 500 μM, and incubating the cells in the presence of CO2 at 37° C. for 3 days.
(2) Stimulation of Cell and Measurement of β-Hexosaminidase-secreting Activity
The cells were collected by centrifuging the suspension of the differentiated HL-60 cells (1,000 rpm, 5 minutes, 4° C.). After that, the following operation was repeated three times to wash the cells: Hepes buffered Hank's solution (HBHS) containing ice-cooled 0.1% BSA (1.2 mM CaCl2.2H2O, 5.4 mM KCl, 0.44 mM KH2PO4, 0.49 mM MgCl2.6H2O, 0.41 mM MgSO4.7H2O, 136.9 mM NaCl, 0.34 mM Na2HPO4, 10 mM Hepes, 4.2 mM NaHCO3, 5.5 mM D-glucose, pH 7.4) was added to the cells; the mixture was suspended by inversion; and the mixture was centrifuged again (1,000 rpm, 5 minutes, 4° C.). Subsequently, HBHS was added so that the mixture has a cell density of 5.6×10^6 cells/ml and suspended. Then, DNase I and cytochalasin B were each added so as to have a final concentration of 5 μg/ml, and the cell suspension was dispensed in an amount of 90 μl (5×10^5 cells) on ice. […] After the cell stimulation for 10 minutes, 100 μl of an ice-cooled stop solution (25 mM Tris, 123 mM NaCl, 2.7 mM KCl, pH 7.4) were added, and immediately, the mixture was centrifuged (5,000 rpm, 1 minute, 4° C.). 200 μl of the obtained supernatant were transferred to a new tube.
The amount of β-hexosaminidase released in the supernatant of the reaction solution was measured by an enzyme reaction using p-nitrophenyl-N-acetyl-μ-D-glucosaminide as a substrate (Non-patent Document 12). That is, the supernatant of the reaction solution was dispensed in an amount of 90 μl to a 96-well plate. 60 μl of a substrate solution (10 mM p-nitrophenyl-N-acetyl-μ-D-glucosaminide, 40 mM citrate, 70 mM Na2HPO4, pH 4.5) were added to each well, followed by incubation at 37° C. for 1 hour. After the reaction, 100 μl of a stop solution (0.4 M glycine, pH 10.7) were added to each well and a color of the released p-nitrophenol was developed. The color development was measured with a plate reader at adsorption at 405 nm (reference: 492 nm). The all amount of β-hexosaminidase contained in the cells was quantified by treating the cells with Triton X-100 having a final concentration of 0.05%. In addition, the amount of β-hexosaminidase secreted by stimulation of 10 μM fMLP was also measured, and the ratio of the secretion amount by stimulation with each peptide to the above sectretion amount by stimulation with fMLP.

[2] = test system: differentiated HL-60 cells; assay: migration activity (Chemotaxis Index) of differentiated HL-60 cells; type: cell-based, human
Protocol: (3) Measurement of Migration Activity
The cells were collected by centrifuging the suspension of the differentiated HL-60 cells (1,000 rpm, 5 minutes, 4° C.). After that, the following operation was repeated three times to wash the cells: 10% FBS-RPMI1640 was added to the cells; the mixture was suspended by inversion; and the mixture was centrifuged again (1,000 rpm, 5 minutes, 4° C.). Then, a medium (10% FBS-RPMI1640) was added so that a cell density was 4×10^6 cells/ml, thereby a cell suspension was prepared. Subsequently, 1 ml of each peptide solution (dissolved in 10% FBS-RPMI 1640) was transferred to each well of a 24-well plate, and the plate was incubated at 37° C. for 20 minutes. After that, 500 μl of the cell suspension (2×10^6 cells) were put in Chemotaxicell (KURABO […] LTD., 3 μm) and the Chemotaxicell was set in a plate, followed by incubation in the presence of 5% CO2 at 37° C. for 1 hour. Then, the Chemotaxicell was removed and the solution in each well of the plate was pipetted. The cells migrated to the plate side was suspended well and the number of the cells were measured. Note that the migration activity by the peptide was represented by a ratio of the number of the cells to the number of the cells passing the Chemotaxicell at the time of non-stimulation (Chemotaxis Index, CI).

[3] = differentiated HL-60 cells, read-out: EC50, β-hexosaminidase-secreting activity

Compound | EC50 [1, 3] [µM] | EC50 ([1]; neutrophil-like differentiated HL-60 cells, Table 1, read-out: EC50 (μM), β-hexosaminidase-secreting activity) [µM] | β-hexosaminidase-secreting activity of C-terminally extended peptide compared to the peptide before the extension ([1]; differentiated HL-60 cells) | concentration of migration activity compared with that of β-hexosaminidase-secreting activity [2] | desensitization of migration activity with increasing concentration of the peptide [2] | Activity (β-hexosaminidase-secreting activity class) ([1]; neutrophil-like differentiated HL-60 cells, lowest concentration class at which secretion was confirmed)
MFPLVKSALNRLQVRSIQQTMARQSHQKRT [No. 031] | 0.2 | – | higher activity compared to the peptides before the extension | confirmed at the almost same concentration | – | –
CC[C@H](C)[C@H](NC(=O)[C@H](CS)NC(=O)[C@H](CC(C)C)NC(=O)[C@H](CCC(N)=O)NC(=O)[C@@H]1CCCN1C(=O)[C@H](CO)NC(=O)[C@H](Cc1ccccc1)NC(=O)[C@H](Cc1c[nH]cn1)NC(=O)[C@H](C)NC(=O)[C@H](CCCNC(=N)N)NC(=O)[C@H](CC(C)C)NC(=O)[C@H](CS)NC(=O)[C@H](Cc1c[nH]cn1)NC(=O)[C@H](CCCNC(=N)N)NC(=O)CNC(=O)[C@@H](NC(=O)[C@H](Cc1c[nH]cn1)NC(=O)[C@H](CCCNC(=N)N)NC(=O)[C@H](CC(C)C)NC(=O)[C@H](CC(C)C)NC(=O)[C@H](CC(C)C)NC(=O)[C@H](C)NC(=O)[C@H](C)NC(=O)[C@@H](N)CCSC)C(C)C)C(=O)N[C@@H](CCCNC(=N)N)C(=O)N[C@@H](CC(N)=O)C(=O)N[C@@H](C)C(=O)N[C@H](C(=O)N1CCC[C@H]1C(=O)N[C@@H](CC(C)C)C(=O)O)C(C)C [No. 023] (H-MAALLLRHVGRHCLRAHFSPQLCIRNAVPL-OH; N-terminus and C-terminus assumed) | 0.3 | – | – | confirmed at the almost same concentration | subjected to desensitization completely | –
MLWNLLALHQIGQRTISTASHRHFKNKVPEKQK [No. 032] | 0.15 | – | higher activity compared to the peptides before the extension | confirmed at the concentration lower than the concentration at which β-hexosaminidase-secreting activity was confirmed | – | –
CC[C@H](C)[C@H](NC(=O)[C@H](CC(C)C)NC(=O)[C@@H](N)CCSC)C(=O)N1CCC[C@H]1C(=O)N[C@@H](Cc1ccccc1)C(=O)N[C@@H](CO)C(=O)N[C@@H](CCSC)C(=O)N[C@@H](CCCCN)C(=O)N[C@@H](CC(N)=O)C(=O)N[C@@H](CS)C(=O)N[C@@H](Cc1ccccc1)C(=O)N[C@@H](CCC(N)=O)C(=O)N[C@@H](CC(C)C)C(=O)N[C@@H](CC(C)C)C(=O)N[C@@H](CS)C(=O)N[C@@H](CC(N)=O)C(=O)N[C@@H](CS)C(=O)N[C@@H](CCC(N)=O)C(=O)N[C@H](C(=O)N1CCC[C@H]1C(=O)N[C@@H](C)C(=O)N[C@@H](C)C(=O)NCC(=O)N[C@@H](Cc1ccccc1)C(=O)N[C@@H](CCCCN)C(=O)O)C(C)C [compound 030] (H-MLIPFSMKNCFQLLCNCQVPAAGFK-OH; N-terminus and C-terminus assumed) | – | 1 | – | – | – | ∘ (a peptide in which the β-hexosaminidase-secreting activity was confirmed at a concentration of 1 μM or less)

Continued, in another order:

EC50 [1, 3] [µM] | EC50 ([1]; neutrophil-like differentiated HL-60 cells, Table 1, read-out: EC50 (μM), β-hexosaminidase-secreting activity) [µM] | Compound | β-hexosaminidase-secreting activity of C-terminally extended peptide compared to the peptide before the extension ([1]; differentiated HL-60 cells) | concentration of migration activity compared with that of β-hexosaminidase-secreting activity [2] | desensitization of migration activity with increasing concentration of the peptide [2] | Activity (β-hexosaminidase-secreting activity class) ([1]; neutrophil-like differentiated HL-60 cells, lowest concentration class at which secretion was confirmed)
0.11 | – | MFRRPVLQVLRQFVRH [No. 037] | – | confirmed at the almost same concentration | subjected to desensitization completely | –
0.1 | – | MFPLARNALSSLKIQSILQSMARH [No. 048] | – | confirmed at the almost same concentration | – | –
